Test results as given in patent publication US11123354B2, “Method for the treatment of osteoarthritis” (ABIOGEN PHARMA S.P.A., priority 2016, dated 2021).

Assays:
[1] = test system: OA rats (MIA model); test: Difference in edema size between right and left knees, MIA-induced OA rats, weekly intra-articular treatment; format: in vivo, Sprague Dawley rats; settings: 4 weekly i.a. administrations
Text: (§1) As an experimental model of OA induction, one involving the intra-articular administration of MIA (monosodium iodoacetate) was used.
The IA injection of MIA creates a model of acute inflammation that allows the study of cartilage degradation and joint pain.
(§2) The rats were anesthetized by a gaseous mixture of isoflurane and oxygen, and maintained in a supine position. Once the infrapatellar ligament was identified by touch, a single intra-articular injection of monosodium iodoacetate (MIA) was performed in the right knee, after having shaved the skin of the area, while keeping the joint slightly flexed. The amount of MIA injected was equal to 1 mg dissolved in 50 μl of saline solution, having a pH of about 4.5, as measured just before administration. The joint of the left knee was instead injected with 50 μl of saline solution alone, and this represented the internal control.
(§3) The treatment involved 4 weekly administrations of sodium chlodronate, followed by one week of follow-up.
(§4) The study included 8 treatment groups, each consisting of 10 male Sprague Dawley rats, specifically five treatment groups consisting of OA rats, on which the chlodronate doses of 2, 10, 20, 30, and 40 mg/ml, corresponding to 0.1, 0.5, 1, 1.5, and 2 mg/rat, were tested, and the remaining three groups represented by untreated OA rats, operated but untreated Sham rats, and rats administered only with placebo at pH 4.5.
During the treatment period, the animals were regularly checked in relation to the increase in body mass, food intake, and general health conditions. Clinical and hematological analyses were performed at the end of the study. The difference between the size of the edema in the two inflamed knees for all the observation groups, the final serum concentration of CTX-I (C-telopeptide of type I collagen), as a marker of bone turnover, and the final serum concentration of CTX-II (C-telopeptide of type II collagen), as a marker of cartilage turnover were investigated.
The measurement of the difference in size of the right and left knee edema (indicated with D and expressed in mm) was performed on anesthetized rats, by using a digital caliper (Digi-max slide caliper W/LCD readout Sigma Aldrich).

[2] = test system: COMP (Cartilage Oligomeric Matrix Protein); test: COMP final serum concentration, MIA-induced OA rats, weekly treatment; format: in vivo, Sprague Dawley rats
Method: as §1, §2, §3, §4
Considering that the presence of high concentrations of COMP in serum is an indication of the progression of osteoarthritic disease, the measurement of COMP (Cartilage Oligomeric Matrix Protein) final serum concentration is a measure of treatment efficacy.
In fact, COMP seems to play a fundamental role in the formation and structure of articular cartilage, as it has a regulatory function in assembling type II collagen fibers and, together with other matrix proteins, stabilizes the network of collagen fibers. During osteoarthritis, a greater amount of this protein was found in the blood, therefore a higher concentration of COMP in the serum corresponds to a more advanced stage of osteoarthritis degeneration.

[3] = test system: OA rats (bilateral anterior cruciate ligament surgical resection); test: Histopathological evaluation (modified Mankin score), OA rats by anterior cruciate ligament resection, monthly treatment; format: in vivo, Sprague Dawley rats; settings: 4 monthly i.a. doses, scale 0 (normal) to 15 (seriously damaged)
Method: In this study, the efficacy of a treatment performed by monthly intra-articular administration of sodium chlodronate on male “Sprague Dawley” rats affected by OA was evaluated. The treatment involved 4 monthly doses of sodium chlodronate, followed by one month of follow-up.
In the experimental model, OA was induced in rats by bilateral anterior cruciate ligament surgical resection in both hind limbs.
A volume of 50 μL of treatment solution, having a pH of about 4.5, as measured just before administration, was injected into the intra-articular cavity of each knee.
The study included 5 treatment groups, each consisting of 10 male rats, specifically two treatment groups consisting of OA rats, on which chlodronate doses of 8 and 12 mg/ml, corresponding to 0.4 and 0.6 mg/rat, were tested, and remaining three groups represented by untreated OA rats, operated but untreated Sham rats, and rats receiving placebo alone.
During the treatment period, the animals were regularly checked in relation to the increase in body mass, food intake and general health conditions. Clinical and hematological analyses were performed at the end of the study. […]

[4] = pH, osmolality and density of unitary dosage form aqueous solutions; format: physicochemical; settings: aqueous solution
Method: Osmolality values were determined according to USP, chapter […] under the heading “Osmolality and Osmolarity”.
Certain compositions of the invention were prepared in unitary dosage form, in the form of an aqueous solution, for weekly, biweekly or monthly administration, comprising sodium chlodronate in tetrahydrate form, whose quali-quantitative compositions and pH, osmolality, and density values, are shown in Table 8 below.
As it is apparent from the table, all the compositions prepared had particularly high osmolality values. Osmolalities were determined by GONOTEC Osmometer, OSMOMAT 3000-D model, serial number 3000150264 according to USP, chapter 785 under the title “Osmolality and Osmolarity”.

[5] = test system: patients with osteoarthritis of the knee; settings: 20 patients, IA 0.9 mg on days 1, 3, 7, 10, 14 and 21; cited from earlier work
[6] = 5.00 mg sodium chlodronate per unitary dosage form (1 ml)
[7] = 10.00 mg sodium chlodronate per unitary dosage form (1 ml)
[8] = 20.00 mg sodium chlodronate per unitary dosage form (1 ml)
[9] = 30.00 mg sodium chlodronate per unitary dosage form (1 ml)
[10] = 40.00 mg sodium chlodronate per unitary dosage form (1 ml)

Structure (SMILES): O=P([O-])(O)C(Cl)(Cl)P(=O)([O-])O.[Na+].[Na+] [Sodium Chlodronate, sodium chlodronate]
- D, Mean Value (mm) ± SEM (difference in size of right and left knee edema) ([1]; 2 mg/ml (0.1 mg/rat)): 0.37 ± 0.067 mm
- D, Mean Value (mm) ± SEM (difference in size of right and left knee edema) ([1]; 10 mg/ml (0.5 mg/rat)): 0.28 ± 0.063 mm
- D, Mean Value (mm) ± SEM (difference in size of right and left knee edema) ([1]; 20 mg/ml (1 mg/rat)): 0.27 ± 0.047 mm
- D, Mean Value (mm) ± SEM (difference in size of right and left knee edema) ([1]; 30 mg/ml (1.5 mg/rat)): 0.11 ± 0.043 mm
- D, Mean Value (mm) ± SEM (difference in size of right and left knee edema) ([1]; 40 mg/ml (2 mg/rat)): 0.28 ± 0.033 mm
- COMP Value ([2]; 2 mg/mL weekly i.a.): 5.46 ng/mL
- COMP Value ([2]; 10 mg/mL weekly i.a.): 5.52 ng/mL
- COMP Value ([2]; 20 mg/mL weekly i.a.): 5.24 ng/mL
- COMP Value ([2]; 30 mg/mL weekly i.a.): 4.9 ng/mL
- COMP Value ([2]; 40 mg/mL weekly i.a.): 3.52 ng/mL
- Mankin Index Mean Value ± SEM ([3]; 8 mg/ml (0.4 mg/rat)): 4.9 ± 0.458
- Mankin Index Mean Value ± SEM ([3]; 12 mg/ml (0.6 mg/rat)): 2.6 ± 0.618
- Density [4, 6]: 1.014 g/mL
- Osmolality (mOsm/Kg) [4, 6]: 395 mOsm/Kg
- pH [4, 6]: 4.6
- Density [4, 7]: 1.016 g/mL
- Osmolality (mOsm/Kg) [4, 7]: 400 mOsm/Kg
- pH [4, 7]: 4.5
- Density [4, 8]: 1.021 g/mL
- Osmolality (mOsm/Kg) [4, 8]: 388 mOsm/Kg
- pH [4, 8]: 4.4
- Density [4, 9]: 1.027 g/mL
- Osmolality (mOsm/Kg) [4, 9]: 408 mOsm/Kg
- pH [4, 9]: 4.4
- Density [4, 10]: 1.032 g/mL
- Osmolality (mOsm/Kg) [4, 10]: 413 mOsm/Kg
- pH [4, 10]: 4.5
- effect on pain symptoms (spontaneous pain and pain in movement) [5]: marked positive effect
